Columns and labels:
COX2 = test: Gene expression in rat articular chondrocytes under IL-1β stimulation, COX2; format: cell-based; settings: Rattus norvegicus, Chondrocyte; 24 h incubation
[1] = Pharmacokinetics, systemic routes, rats; format: in vivo
[2] = system: rat primary articular chondrocytes; test: Toxicity analysis (MTT) in rat primary chondrocytes
Protocol: Purified chondrocytes were resuspended in DMEM glutaMAX 10% and plated in a 96X well plate for toxicity analysis and in a 6X well plate for gene expression analysis.
For toxicity analysis cells were then treated with the different compounds for 24 and 48 h. At the end of the incubation time, the medium was removed and was substituted with a mixture 10:1 of DMEM glutaMAX 10%—MTT (2 mg/ml) for 1 h at 37° C. in the cell incubator. After this incubation, the precipitated salt was dissolved with 100 μl of DMSO and the plate was read at 540 nm. The toxicity analysis were performed to decide the maximal non toxic concentration of each compound used in the gene expression assay.

CDK2 = CDK2 (Homo sapiens (Human), UniProt P24941); test: Kinase selectivity (Eurofins Cerep), CDK2; format: biochemical; settings: maximal concentration tested 10 μM
Protocol: (§1) The assays were performed in Eurofins Cerep (France). The concentration range of the compound under investigation was from 10^−9 M up to 10^−5 M final concentration.

VEGFR2 = VEGFR2 (Homo sapiens (Human), UniProt P35968); test: In vitro VEGFR2 kinase activity assay (Eurofins Cerep); format: biochemical; settings: read-out: VEGFR2 KINASE INHIBITION IC50
In short: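 Contract biochemical kinase assay on human VEGFR2 with inhibitors at 10^−8 to 10^−5 M final (some re-tested from 10^−9 M). Activity expressed as percent of no-compound control; IC50 by non-linear regression of mean replicate inhibition curves.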

AMPKa = test: Kinase selectivity (Eurofins Cerep), AMPKa; format: biochemical, human; settings: maximal concentration tested 10 μM
Protocol: as §1

MMP3 = test: Gene expression in rat articular chondrocytes under IL-1β stimulation, MMP3; format: cell-based; settings: Rattus norvegicus, Chondrocyte; 24 h incubation
In short: (§2)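 Cells are first synchronized in low-supplement medium (DMEM GlutaMAX I 0.4%). They are then exposed together to test compound and 2 ng/ml cytokine. After 6 h, IL-1β and ADAMTS-5 mRNA is quantified, and after 24 h MMP3 and MMP13 mRNA, all by TaqMan PCR against 18S.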

Fyn = Fyn (Homo sapiens (Human), UniProt P06241); test: Z′-LYTE in vitro Fyn kinase activity assay; format: biochemical; settings: ATP 50 μM; read-out: FYN KINASE INHIBITION IC50
In short: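 Z′-LYTE FRET format with full-length active Fyn in 50 mM Hepes pH 7.5, 10 mM MgCl2, 1 mM EGTA, 0.01% Brij-35, 1% DMSO final; 60 minutes at 25° C. Percent phosphorylation from 0% and 100% phosphorylation controls; IC50 by non-linear curve fitting of percent inhibition.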

MMP13 = test: Gene expression in rat articular chondrocytes under IL-1β stimulation, MMP13; format: cell-based; settings: Rattus norvegicus, Chondrocyte; 24 h incubation
In short: as §2

[3] = Pharmacokinetics, oral route, mice; settings: mouse, in vivo, read-out: Absolute bioavailability
FGFR2 = FGFR2 (Homo sapiens (Human), UniProt P21802); settings: read-out: KINASE SELECTIVITY IC50 FGFR2
Protocol: as §1

Src = Src (Homo sapiens (Human), UniProt P12931); settings: read-out: KINASE SELECTIVITY IC50 Src
Protocol: as §1

Lyn-A = Lyn-A (Homo sapiens (Human), UniProt P07948); settings: read-out: KINASE SELECTIVITY IC50 Lyn-A
Protocol: as §1

Jak3 = Jak3 (Homo sapiens (Human), UniProt P52333); settings: read-out: KINASE SELECTIVITY IC50 Jak3
Protocol: as §1

Yes = Yes (Homo sapiens (Human), UniProt P07947); settings: read-out: KINASE SELECTIVITY IC50 Yes
Protocol: as §1

Chain of Jak3 (P52333 whole entry): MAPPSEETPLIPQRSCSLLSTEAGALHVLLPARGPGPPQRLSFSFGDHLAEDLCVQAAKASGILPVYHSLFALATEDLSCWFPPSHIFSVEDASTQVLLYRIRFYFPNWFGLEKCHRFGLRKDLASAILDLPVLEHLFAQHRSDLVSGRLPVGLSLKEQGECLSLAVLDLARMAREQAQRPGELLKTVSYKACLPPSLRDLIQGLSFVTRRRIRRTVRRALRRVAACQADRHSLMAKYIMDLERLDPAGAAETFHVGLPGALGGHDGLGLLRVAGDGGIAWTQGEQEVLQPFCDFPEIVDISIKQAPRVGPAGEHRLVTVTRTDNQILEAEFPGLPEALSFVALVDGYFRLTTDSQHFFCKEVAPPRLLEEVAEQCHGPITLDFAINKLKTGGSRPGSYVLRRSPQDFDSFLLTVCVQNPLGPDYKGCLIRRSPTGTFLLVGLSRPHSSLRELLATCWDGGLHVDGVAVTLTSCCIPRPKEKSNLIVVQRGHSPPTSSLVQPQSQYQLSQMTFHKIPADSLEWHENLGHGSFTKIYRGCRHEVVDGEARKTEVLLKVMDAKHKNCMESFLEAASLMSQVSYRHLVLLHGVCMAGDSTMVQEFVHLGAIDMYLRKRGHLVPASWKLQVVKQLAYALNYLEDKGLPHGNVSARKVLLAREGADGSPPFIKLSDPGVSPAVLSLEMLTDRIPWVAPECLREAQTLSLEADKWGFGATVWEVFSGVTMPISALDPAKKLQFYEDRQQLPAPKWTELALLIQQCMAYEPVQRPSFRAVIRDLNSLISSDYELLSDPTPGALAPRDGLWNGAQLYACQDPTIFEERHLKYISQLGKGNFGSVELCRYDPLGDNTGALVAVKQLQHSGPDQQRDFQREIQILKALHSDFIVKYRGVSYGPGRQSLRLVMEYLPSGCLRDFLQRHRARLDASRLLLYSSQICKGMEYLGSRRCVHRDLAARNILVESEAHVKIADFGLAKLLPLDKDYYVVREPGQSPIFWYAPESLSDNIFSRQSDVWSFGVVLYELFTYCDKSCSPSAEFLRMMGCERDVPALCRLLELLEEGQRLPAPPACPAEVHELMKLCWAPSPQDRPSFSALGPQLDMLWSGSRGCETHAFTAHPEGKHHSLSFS
Chain of Src (P12931 whole entry, looked up): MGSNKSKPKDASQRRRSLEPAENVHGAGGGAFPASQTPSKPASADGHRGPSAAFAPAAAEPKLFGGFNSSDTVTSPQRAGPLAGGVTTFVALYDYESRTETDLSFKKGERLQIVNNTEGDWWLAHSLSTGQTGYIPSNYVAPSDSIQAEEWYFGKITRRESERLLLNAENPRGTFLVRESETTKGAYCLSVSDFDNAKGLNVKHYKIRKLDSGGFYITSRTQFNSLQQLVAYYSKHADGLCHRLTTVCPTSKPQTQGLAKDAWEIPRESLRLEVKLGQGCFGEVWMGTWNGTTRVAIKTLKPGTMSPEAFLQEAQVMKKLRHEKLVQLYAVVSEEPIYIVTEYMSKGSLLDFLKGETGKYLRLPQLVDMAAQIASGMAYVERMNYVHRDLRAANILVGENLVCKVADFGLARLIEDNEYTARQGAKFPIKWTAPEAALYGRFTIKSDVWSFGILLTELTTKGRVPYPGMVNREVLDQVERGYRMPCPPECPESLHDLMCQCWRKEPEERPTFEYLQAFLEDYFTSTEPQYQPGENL
Chain of Yes (P07947 whole entry): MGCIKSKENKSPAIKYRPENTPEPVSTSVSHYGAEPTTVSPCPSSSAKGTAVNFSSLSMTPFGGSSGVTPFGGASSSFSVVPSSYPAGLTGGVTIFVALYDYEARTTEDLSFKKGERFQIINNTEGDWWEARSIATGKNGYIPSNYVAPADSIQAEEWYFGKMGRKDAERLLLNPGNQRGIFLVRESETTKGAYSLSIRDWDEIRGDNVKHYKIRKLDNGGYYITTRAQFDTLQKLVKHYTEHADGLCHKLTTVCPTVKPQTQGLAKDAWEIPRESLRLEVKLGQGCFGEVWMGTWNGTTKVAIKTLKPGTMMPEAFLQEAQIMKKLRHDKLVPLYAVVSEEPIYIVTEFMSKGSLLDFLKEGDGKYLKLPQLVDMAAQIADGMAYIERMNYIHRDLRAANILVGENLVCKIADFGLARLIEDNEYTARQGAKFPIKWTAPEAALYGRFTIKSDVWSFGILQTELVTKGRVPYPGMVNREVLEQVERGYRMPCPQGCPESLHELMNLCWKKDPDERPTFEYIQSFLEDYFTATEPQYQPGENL
Chain of FGFR2 (P21802 22-821): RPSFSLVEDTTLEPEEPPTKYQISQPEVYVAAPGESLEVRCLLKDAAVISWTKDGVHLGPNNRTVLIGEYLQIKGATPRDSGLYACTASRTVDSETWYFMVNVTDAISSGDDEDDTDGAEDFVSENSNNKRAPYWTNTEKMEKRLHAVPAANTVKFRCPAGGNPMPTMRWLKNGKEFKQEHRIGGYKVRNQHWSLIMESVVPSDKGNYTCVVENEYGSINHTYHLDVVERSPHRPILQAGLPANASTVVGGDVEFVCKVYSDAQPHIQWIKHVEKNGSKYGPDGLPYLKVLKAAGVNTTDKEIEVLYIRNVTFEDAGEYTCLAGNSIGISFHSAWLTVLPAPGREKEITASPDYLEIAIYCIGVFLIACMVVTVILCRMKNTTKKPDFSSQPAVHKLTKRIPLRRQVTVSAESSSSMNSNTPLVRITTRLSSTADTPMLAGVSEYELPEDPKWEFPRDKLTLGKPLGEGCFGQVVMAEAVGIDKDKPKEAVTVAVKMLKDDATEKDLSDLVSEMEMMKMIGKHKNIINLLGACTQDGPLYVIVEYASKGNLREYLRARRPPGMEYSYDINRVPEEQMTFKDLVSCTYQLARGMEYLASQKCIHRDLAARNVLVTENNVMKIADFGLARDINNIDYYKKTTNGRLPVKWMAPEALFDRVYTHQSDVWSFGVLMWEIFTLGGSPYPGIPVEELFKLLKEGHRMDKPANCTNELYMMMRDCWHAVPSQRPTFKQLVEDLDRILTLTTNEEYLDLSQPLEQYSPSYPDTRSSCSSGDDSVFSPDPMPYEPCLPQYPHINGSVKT
Chain of VEGFR2 (P35968 20-1356): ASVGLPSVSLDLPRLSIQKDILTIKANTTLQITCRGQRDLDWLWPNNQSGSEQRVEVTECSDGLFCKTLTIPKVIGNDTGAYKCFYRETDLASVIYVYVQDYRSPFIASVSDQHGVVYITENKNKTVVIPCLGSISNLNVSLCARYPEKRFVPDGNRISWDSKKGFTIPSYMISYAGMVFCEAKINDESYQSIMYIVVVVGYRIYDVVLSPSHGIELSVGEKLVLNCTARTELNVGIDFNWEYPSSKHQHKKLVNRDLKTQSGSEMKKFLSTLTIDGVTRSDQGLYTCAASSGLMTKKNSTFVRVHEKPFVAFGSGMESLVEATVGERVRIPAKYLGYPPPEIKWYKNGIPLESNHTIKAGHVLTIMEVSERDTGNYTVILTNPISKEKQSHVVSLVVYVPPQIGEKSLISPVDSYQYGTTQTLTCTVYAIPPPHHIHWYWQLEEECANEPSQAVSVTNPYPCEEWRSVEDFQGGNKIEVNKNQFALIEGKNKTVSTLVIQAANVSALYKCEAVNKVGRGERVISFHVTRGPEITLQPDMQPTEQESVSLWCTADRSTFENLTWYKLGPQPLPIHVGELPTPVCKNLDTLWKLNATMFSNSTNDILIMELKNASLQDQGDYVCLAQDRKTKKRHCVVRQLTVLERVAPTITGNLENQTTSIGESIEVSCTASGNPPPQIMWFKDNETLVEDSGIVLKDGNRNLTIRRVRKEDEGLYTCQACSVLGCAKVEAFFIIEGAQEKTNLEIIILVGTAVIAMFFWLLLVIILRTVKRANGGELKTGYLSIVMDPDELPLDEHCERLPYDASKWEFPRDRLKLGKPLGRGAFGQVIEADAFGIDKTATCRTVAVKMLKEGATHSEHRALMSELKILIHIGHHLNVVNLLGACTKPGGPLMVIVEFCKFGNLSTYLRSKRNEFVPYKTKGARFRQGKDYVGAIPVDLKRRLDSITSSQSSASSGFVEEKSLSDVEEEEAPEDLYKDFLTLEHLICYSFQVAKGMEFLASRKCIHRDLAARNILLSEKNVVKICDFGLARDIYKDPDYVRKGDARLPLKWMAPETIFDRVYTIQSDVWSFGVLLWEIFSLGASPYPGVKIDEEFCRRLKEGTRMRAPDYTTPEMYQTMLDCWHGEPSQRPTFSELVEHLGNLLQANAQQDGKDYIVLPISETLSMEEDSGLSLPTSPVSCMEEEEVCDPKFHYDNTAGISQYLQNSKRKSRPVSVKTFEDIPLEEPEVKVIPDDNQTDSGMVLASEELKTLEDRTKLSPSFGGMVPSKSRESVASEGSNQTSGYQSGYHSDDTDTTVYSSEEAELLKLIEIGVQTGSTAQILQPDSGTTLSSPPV
Chain of Fyn (P06241 whole entry): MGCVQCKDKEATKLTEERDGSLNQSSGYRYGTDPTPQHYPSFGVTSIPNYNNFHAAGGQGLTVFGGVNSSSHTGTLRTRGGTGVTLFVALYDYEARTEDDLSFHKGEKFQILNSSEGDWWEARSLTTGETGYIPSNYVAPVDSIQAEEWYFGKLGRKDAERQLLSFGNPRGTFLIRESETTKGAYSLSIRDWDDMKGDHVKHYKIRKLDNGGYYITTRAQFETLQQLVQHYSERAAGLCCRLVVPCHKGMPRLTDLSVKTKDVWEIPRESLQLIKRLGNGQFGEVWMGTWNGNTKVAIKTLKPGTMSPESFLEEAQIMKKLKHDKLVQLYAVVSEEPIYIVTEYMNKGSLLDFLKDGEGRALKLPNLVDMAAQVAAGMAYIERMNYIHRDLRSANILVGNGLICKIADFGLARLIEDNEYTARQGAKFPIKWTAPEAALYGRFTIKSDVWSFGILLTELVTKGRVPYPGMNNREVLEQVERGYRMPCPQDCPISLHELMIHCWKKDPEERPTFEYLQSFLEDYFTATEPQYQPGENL

Question: Which results are given for `Cc1ccc(NC(=O)c2cccc(C(F)(F)F)c2)cc1CCc1cc(Nc2cnccn2)[nH]n1` [Compound 3, N-(4-methyl-3-(2-(5-(pyrazin-2-ylamino)-1H-pyrazol-3-yl)ethyl)phenyl)-3-(trifluoromethyl)benzamide]?
Answer: IC50 (COX2): 187 nM; Metabolism in rats [1]: lack of important metabolism; bioavailability ([1]; rat, in vivo, oral route, read-out: Absolute bioavailability): ~6%; First toxic concentration at 48 h in rat primary chondrocytes ([2]; 48 h): 3 µM; First toxic concentration at 24 h ([2]; rat primary chondrocytes, 24 h): 10 µM; IC50 (CDK2): > 10000 nM; IC50 (VEGFR2): 7 nM; IC50 (AMPKa): > 10000 nM; IC50 (MMP3): 323 nM; IC50 (Fyn): 9 nM; IC50 (MMP13): 477 nM; bioavailability [3]: ~12%; IC50 (FGFR2): 3000 nM; IC50 (Src): 370 nM; IC50 (Lyn-A): 59 nM; IC50 (Jak3): 1760 nM; IC50 (Yes): 17 nM

Reference: patent US12509446B2, “FYN and VEGFR2 kinase inhibitors” (ROTTAPHARM BIOTECH S.R.L., priority 2019, dated 2025)
